Article PMC6445542 (Marmara pharmaceutical journal, 2013)

Target: HCV NS5B RNA dependent RNA polymerase (NS5BCΔ21) (Hepatitis C virus genotype 1b, UniProt P26663)
Experiment: HCV NS5B RdRp primer dependent elongation
Format: biochemical
Conditions: for inhibition at 100 µM: read-out: % Inhibition (100 μM) of HCV NS5B RdRp activity

Row | Structure (SMILES) | inhibition at 100 µM | IC50
1 | CCc1cccc2c3c([nH]c12)C(CC)(CC(=O)O)OCC3 (racemic) [Etodolac, (R,S) 2-[1,8-diethyl-1,3,4-tetrahydropyrano (3,4-b)indole-1-yl]acetic acid, reference compound] | ~10% | 
2 | CCNC(=S)NNC(=O)CC1(CC)OCCc2c1[nH]c1c(CC)cccc21 (centres unmarked) [Compound 3b, 1-[2-(1,8-Diethyl-1,3,4,9-tetrahydropyrano[3,4-b]indole-1-yl)acetyl]-4-ethyl thiosemicarbazide] | 49.9 ± 0.3% | 
3 | CCCNC(=S)NNC(=O)CC1(CC)OCCc2c1[nH]c1c(CC)cccc21 (centres unmarked) [Compound 3c, 1-[2-(1,8-Diethyl-1,3,4,9-tetrahydropyrano[3,4-b]indole-1-yl)acetyl]-4-propyl thiosemicarbazide] | 34.6 ± 1.1% | 
4 | CCCCNC(=S)NNC(=O)CC1(CC)OCCc2c1[nH]c1c(CC)cccc21 (centres unmarked) [Compound 3d, 1-[2-(1,8-Diethyl-1,3,4,9-tetrahydropyrano[3,4-b]indole-1-yl)acetyl]-4-butyl thiosemicarbazide] | 68.7 ± 0.9% | 29.2 ± 1.4 µM
5 | CCc1cccc2c3c([nH]c12)C(CC)(CC(=O)NNC(=S)NCc1ccccc1)OCC3 (centres unmarked) [Compound 3f, 1-[2-(1,8-Diethyl-1,3,4,9-tetrahydropyrano[3,4-b]indole-1-yl)acetyl]-4-benzyl thiosemicarbazide] | 23.4 ± 1.8% | 
6 | CCc1cccc2c3c([nH]c12)C(CC)(CC(=O)NNC(=S)Nc1ccccc1)OCC3 (centres unmarked) [Compound 3g, 1-[2-(1,8-Diethyl-1,3,4,9-tetrahydropyrano[3,4-b]indole-1-yl)acetyl]-4-phenyl thiosemicarbazide] | 38.9 ± 0.9% | 
7 | CCc1cccc2c3c([nH]c12)C(CC)(CC(=O)NNC(=S)NC1CCCCC1)OCC3 (centres unmarked) [Compound 3h, 1-[2-(1,8-Diethyl-1,3,4,9-tetrahydropyrano[3,4-b]indole-1-yl)acetyl]-4-cyclohexyl thiosemicarbazide] | 47.4 ± 0.9% | 
